The source of these data is patent publication US20050049299A1, “Selective inhibitors of stat-3 activation and uses thereof” (priority 2003, published 2005).

SMILES strings stand for the structures. “Also recorded” adds a separate entry of the source.

Format in all cases: cell-based, human
For assay [1], the system named is MDA 1986LN cells. In words: Proliferation of MDA 1986LN cells (MTT assay). As to the method: (§1) MDA 1986LN cells (2×10^6 cells) were treated with indicated concentrations of AG490 for 8 h and whole extracts prepared. These whole-cell extracts (30 μg) were resolved on 7.5% SDS-PAGE, electrotransferred to a nitrocellulose membrane, probed for p-STAT3 (upper panel), striped and reprobed for STAT3 (middle panel) and β-actin (lower panel). […] The cells were treated with AG490 (100 μM) for the indicated durations and whole cell extracts prepared and analyzed as mentioned earlier. FIG. 15C compares the effect of curcumin and AG490 on proliferation of MDA 1986LN cells by MTT assay.
Further, the proliferation of MDA 1986LN cells when treated with curcumin was compared with AG490 treated cells by performing MTT assay.
(In general: Tetrazolium dyes change colour on reduction, which living cells bring about.)

Assay [2] has as its system STAT3 phosphorylation. In words: Phosphorylated STAT3 in HNSCC cells (immunocytochemistry, horseradish peroxidase stain). As to conditions: 50 μM, 2 hrs. The procedure: MDA 1986LN, MDA 686LN and JMAR cells were incubated with either media alone or with curcumin (50 μM) for 2 hrs and then analyzed by immunocytochemistry using Alexa fluorochrome for the distribution of STAT3 (original magnification ×200). […] The same procedure as mentioned above was performed on the same cells and the p-STAT3 analyzed by immunocytochemistry using horse radish peroxidase stain (original magnification ×200).
To further confirm that curcumin inhibited STAT3 phosphorylation, the same curcumin-treated and untreated cells were analyzed for phosphorylated STAT3 by immunocytochemistry using horseradish peroxidase stain. […] These findings confirmed that curcumin inhibited STAT3 phosphorylation.

The test system of assay [3] is STAT1 phosphorylation. Put plainly: IFN-α-inducible STAT1 phosphorylation in U266 cells (Western blot). As to conditions: 50 μM curcumin, IFN-α 10 ng/ml. The procedure:
(§2) U266 cells (2×10^6) were treated with the indicated concentrations of curcumin for 1 h, or treated with 50 μM curcumin for the indicated durations and levels of phosphorylated-STAT3 (upper panel) and STAT3 (lower panel) were examined in whole cell extracts by Western Blotting. […] U266 cells (2×10^6) were treated with 50 μM curcumin for indicated durations, and examined for phosphorylated and nonphosphorylated-STAT3, and STAT5. […] U266 cells (2×10^6) were preincubated with curcumin (50 μM) for indicated durations before treatment with IFN-α (10 ng/ml) for additional 30 min and then examined for phosphorylated and nonphosphorylated-STAT1.
(§3) For detection of STAT proteins, whole-cell extracts were prepared by lysing the curcumin-treated cells in lysis buffer (20 mM Tris, pH 7.4, 250 mM NaCl, 2 mM EDTA, pH 8.0, 0.1% Triton-X100, 0.01 mg/ml aprotinin, 0.005 mg/ml leupeptin, 0.4 mM PMSF, and 4 mM NaVO4). Lysates were then spun at 14000 rpm for 10 min to remove insoluble material, and resolved on a 7.5% gel. After electrophoresis, the proteins were electrotransferred to a nitrocellulose membrane, blocked with 5% nonfat milk, and probed with anti-STAT antibodies (1:1000) overnight at 4° C. The blot was washed, exposed to HRP-conjugated secondary antibodies for 1 h, and finally examined by chemiluminescence (ECL, Amersham Pharmacia Biotech. Arlington Heights, Ill.). […]
In general terms: In western blotting, separated proteins are transferred to a membrane and probed.

Assay [4] concerns STAT3 phosphorylation. Put plainly: Constitutive STAT3 phosphorylation in MDA 1986LN cells (Western blot). As to the method:
TU167, MDA 1986LN, TU 686, MDA 686LN and JMAR cells (2×10^6 cells) were lysed and whole cell extracts (30 μg) were resolved on 7.5% SDS-PAGE, electrotransferred to a nitrocellulose membrane and probed for phosphorylated-STAT3 (p-STAT3) and total STAT3 proteins. […] MDA 1986LN cells (2×10^6 cells) were treated with curcumin (50 μM) for indicated durations or with indicated concentrations of curcumin for 1 h and levels of p-STAT3 (upper panels) and STAT3 (lower panels) were examined in whole cell extracts by Western blotting.
MDA 1986LN cells (2×10^6 cells) were treated with curcumin (50 μM) for the indicated durations (upper panels) or treated for 1 h and washed twice with PBS to remove curcumin before re-suspending in fresh medium. Cells were removed at indicated times and lysed to prepare the whole cell extract (lower panels). The whole cell extracts (30 μg) were resolved on 7.5% SDS-PAGE, electrotransferred to a nitrocellulose membrane, probed for the p-STAT3 (upper panels) and striped and reprobed for STAT3 (lower panels).
as §1
Since STAT3 was constitutively phosphorylated in MDA 1986LN cells, the ability of curcumin to inhibit the constitutive STAT3 phosphorylation was examined. MDA 1986LN cells were treated either with curcumin (50 μM) for different durations or with different concentrations of curcumin for 1 h and the p-STAT3 levels and STAT3 levels were determined. Curcumin inhibited the constitutively active STAT3 in a time-(FIG. 11B) and a dose-(FIG. 11C) manner. This curcumin-induced inhibition could be observed as early as 30 min and with a concentration as low as 25 μM.
MDA 1986LN cells were treated with curcumin for indicated times or for 1 h and the cells were washed twice with PBS to remove curcumin. The cells were then cultured in media for various durations and the levels of phosphorylated STAT3 were determined. […] However, the STAT3 levels were unaffected by curcumin treatment.
The concentration and the exposure time for AG490 to inhibit STAT3 phosphorylation in MDA 1986LN cells were determined. These cells were incubated with either different concentrations of AG490 or with 100 μM of AG490 for different durations and the levels of p-STAT3 and STAT3 were assessed.

Assay [5] deals with STAT5 phosphorylation. Put plainly: Constitutive STAT5 phosphorylation in U266 cells (Western blot). As to conditions: 50 μM, conditions of complete STAT3 phosphorylation inhibition. The procedure: as §2, §3

On to `COc1cc(/C=C/C(=O)CC(=O)/C=C/c2ccc(O)c(OC)c2)ccc1O` [curcumin, diferuloylmethane], for which the “inhibition of proliferation of MDA 1986LN cells compared with AG490” value in assay [1] was “more efficiently that AG490”. In addition, the “phosphorylation of STAT3 (immunocytochemistry)” value in assay [2] (JMAR cells) is recorded as “no inhibition of STAT3 phosphorylation was observed”; in assay [2] (MDA 1986LN and MDA 686LN cells), “inhibited the phosphorylation of STAT3”. In addition, the “IFN-α-induced STAT1 phosphorylation” value in assay [3] is “suppressed the phosphorylation in a time-dependent manner”. Moreover, the “reversibility of inhibition of STAT3 phosphorylation” value in assay [4] (50 μM 1 h then washed) is on record as “removal of curcumin resulted in gradual increase in phosphorylated STAT3”. Besides, in assay [4] (50 μM curcumin), the “earliest time at which inhibition of constitutive STAT3 phosphorylation could be observed” value was 30 min. Moreover, in assay [4] (1 h), the “lowest concentration at which inhibition of constitutive STAT3 phosphorylation could be observed” value was found to be 25 µM. In assay [4] (curcumin 50 μM, 1 h), the “inhibition of constitutive STAT3 phosphorylation” value is recorded as “inhibited the STAT3 phosphorylation completely; also recorded: completely inhibit”. The “overall expression / levels of STAT3 protein” value in assay [4] (curcumin treatment) was “did not alter the overall expression of STAT3 protein; also recorded: unaffected”. Besides, the “levels of constitutively phosphorylated STAT5” value in assay [5] is “neither altered the levels of constitutively phosphorylated STAT5”.
